# In patent US6545032B1, “Synthesis of [3,5,7]-H-imidazo[1,5-a] imidazol-2(3H)-one compounds” (Torrey Pines Institute for Molecular Studies, priority 1999, dated 2003):
# Key:
# mu opiate receptor = biological target: T1, mu opiate receptor (Rattus norvegicus, UniProt P33535); test: Inhibition of [3H]DAMGO binding to the mu opiate receptor in rat brain homogenates; design: Mean: unit not given beside the values; conditions: 0.08 mg of compound per milliliter, 7 nM 3H-labeled DAMGO, rat brain membranes; for % Bound: [3H]DAMGO bound; for Mean: mean bound radioactivity of [3H]DAMGO; for Minus NSB*: mean minus non-specific binding; for % Inhibition: percent inhibition of DAMGO binding
# T1 construct: from tissue; host or cells: rat brain membranes/homogenate
# Method: The previously prepared [3,5,7]-1H-imidazo[1,5-a]-imidazol-2(3H)-one library of individual compounds was screened for the ability to inhibit the binding of [^3H] [D-Ala^2,MePhe^4,Gly^5-ol]enkephalin (DAMGO) that is known to bind specifically to the mu opiate receptor present in rat brain homogenates following literature procedures. [Dooley et al., Science, 266:2019(1994); U.S. Pat. No. 5,763,193.]
# Preparation of rat brain membranes and the receptor binding assay were carried out as described in Dooley et al., Life Sci., 52:1509(1993). Each tube in the screening assay contained 0.08 mg of compound mixture per milliliter, 0.5 mL of membrane suspension (0.1 mg of protein), 7 nM ^3H-labeled DAMGO [specific activity 36 Ci/mmol, obtained from the National Institute on Drug Abuse (NIDA) repository through Chiron Mimotopes PeptideSystems (San Diego, Calif.) and […] of peptide mixture in 50 mM Tris-HCl buffer (pH 7.4). The final volume was 0.65 mL. The results of these screenings are shown in the table, below, wherein the “R” groups are as discussed for Example 1. The results are reported as percent inhibition of DAMGO binding.
# kappa opiate receptor = biological target: T2, kappa opiate receptor (Cavia porcellus, UniProt P41144); test: Inhibition of tritiated U69,593 binding to the kappa opiate receptor in guinea pig brain homogenates; design: Mean: unit not given beside the values; conditions: 3 nm tritiated U69,593, guinea pig brain membranes; for % Bound: [3H]U69,593 bound; for % Inhibition: inhibition of [3H]U69,593 binding; for Mean: mean bound radioactivity of [3H]U69,593, 2.5 hours 25° C.; for Minus NSB: mean minus non-specific binding
# T2 construct: guinea pig cortices and cerebella were homogenized in 40 mL of Buffer A; from tissue; host or cells: guinea pig cortices and cerebella, crude membrane suspension
# Method: The above-prepared library of individual compounds was screened for the ability to inhibit the binding of tritiated Compound U69,593 that is known to bind specifically to the kappa opiate receptor present in guinea pig brain homogenates following literature procedures. [Dooley et al., J. Biol. Chem., 273(30) 18848-18856 (1998)]
# Briefly, guinea pig cortices and cerebella were homogenized in 40 mL of Buffer A [50 mM Tris-HCl, pH 7.4] at 4° C. Homogenates were centrifuged [Beckman® J2-HC, 35, 300×g] for 10 minutes. The pellets were resuspended in fresh buffer and incubated at 37° C. for 40 minutes. Following incubation, the suspensions were centrifuged as before, the resulting pellets resuspended in 100 volumes of Tris buffer, and the suspensions combined. Membrane suspensions were prepared and used on the same day. Protein content of the crude homogenates was determined by the method of Bradford, Anal. Biochem., 72:248-252 (1976).
# Each assay tube contained 0.5 mL of membrane suspension, 3 nm of tritiated Compound U69,593 [(5a,7a,8b)-(−)-N-methyl-N-(7-(1-pyrrolidinyl)-1-oxaspiro(4,5)dec-8-yl)-benzeneacetamide; Lahti et al., European J. Pharmacol., 109:281-284(199-85)] in a total volume of 0.65 mL. Assay tubes were incubated for 2.5 hours a 25° C. The assay was then filtered through GF-B filters on a Tomec™ harvester (Orange, Conn.). The filters were subsequently washed with 6 mL of 50 mM Tris-HC1, pH 7.4 at 4° C. Bound radioactivity was counted on a Wallace™ Beta-plate Liquid Scintillation Counter (Piscataway, N.J.). Unlabeled U50, 488 [(trans-(dl)-3,4-dichloro-N-methyl-N-[2-(1-pyrrolidinyl)cyclohexyl]-benzeneacetamide) methane sulfonate hydrate; Lahti et al., Life Sci., 31:2257-xx(1982) and Von Voightlander et al., J. Pharmacol. Exp. Ther., 224:7 (1983)] was used as a competitive inhibitor to generate a standard curve and determine nonspecific binding. The results of these assays are shown in the table, below, wherein the “R” groups are as discussed for Example 1.
# T2 sequence (P41144 whole entry): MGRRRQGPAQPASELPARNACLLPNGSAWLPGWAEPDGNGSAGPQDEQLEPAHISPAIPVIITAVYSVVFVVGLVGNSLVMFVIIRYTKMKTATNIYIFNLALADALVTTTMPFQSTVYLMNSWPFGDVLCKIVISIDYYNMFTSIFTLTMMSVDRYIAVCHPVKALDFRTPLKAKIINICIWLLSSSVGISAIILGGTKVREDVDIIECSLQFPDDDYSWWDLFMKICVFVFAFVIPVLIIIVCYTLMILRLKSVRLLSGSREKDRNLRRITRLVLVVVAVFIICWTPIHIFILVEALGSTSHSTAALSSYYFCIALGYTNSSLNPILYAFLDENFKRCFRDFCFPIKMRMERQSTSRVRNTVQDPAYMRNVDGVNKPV
# T1 sequence (P33535 whole entry): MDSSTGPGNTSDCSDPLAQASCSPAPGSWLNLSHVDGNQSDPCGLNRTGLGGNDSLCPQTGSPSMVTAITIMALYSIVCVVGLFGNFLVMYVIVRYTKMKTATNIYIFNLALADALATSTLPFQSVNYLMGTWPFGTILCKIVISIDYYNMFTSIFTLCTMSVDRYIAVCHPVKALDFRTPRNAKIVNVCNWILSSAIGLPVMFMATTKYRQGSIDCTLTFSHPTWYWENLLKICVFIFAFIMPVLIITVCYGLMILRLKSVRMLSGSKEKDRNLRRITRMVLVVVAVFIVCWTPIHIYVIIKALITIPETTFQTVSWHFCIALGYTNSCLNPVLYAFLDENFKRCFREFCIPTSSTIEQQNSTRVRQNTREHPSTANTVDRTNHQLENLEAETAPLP
Compound,% Bound (mu opiate receptor) [%],Mean (mu opiate receptor),Minus NSB* (mu opiate receptor),% Inhibition (mu opiate receptor) [%],% Bound (kappa opiate receptor) [%],% Inhibition (kappa opiate receptor) [%],Mean (kappa opiate receptor),Minus NSB (kappa opiate receptor)
CC(C)c1nc(Cc2cc(C(F)(F)F)cc(C(F)(F)F)c2)n2c1NC(=O)C2C(C)C (racemic) [Pool 82],63,911.65,603.65,37,70.589,29.411,1638.3,731.30
CC(C)c1nc(CC23CC4CC(CC(C4)C2)C3)n2c1NC(=O)C2C(C)C (stereo not shown) [Pool 156],65,925.85,617.85,35,78.803,21.197,1723.4,816.40
CC1CCC(Cc2nc(C(C)C)c3n2C(C(C)C)C(=O)N3)CC1 (stereo not shown) [Pool 152],48,770.1,462.10,52,58.697,41.303,1515.1,608.10
CC(C)c1nc(C2CCCCC2)n2c1NC(=O)C2C(C)C (stereo not shown) [Pool 137],66,933.35,625.35,34,129.619,−29.619,2249.85,1342.85
CC(C)c1nc(C2CCC2)n2c1NC(=O)C2C(C)C (stereo not shown) [Pool 144],59,867.3,559.30,41,52.172,47.828,1447.5,540.50
Cc1nc(Cc2ccc(O)cc2)c2n1C(C(C)C)C(=O)N2 (racemic) [Pool 64],42,710.9,402.90,58,61.631,38.369,1545.5,638.50
CCCC1C(=O)Nc2c(C(C)C)nc(C)n21 (stereo not shown) [Pool 12],72,998.7,690.70,28,74.706,25.294,1680.95,773.95
Cc1nc(C(C)C)c2n1C(C(C)C)C(=O)N2 (stereo not shown) [Pool 36],66,940.6,632.60,34,84.976,15.024,1787.35,880.35
CCCc1nc(C)n2c1NC(=O)C2C(C)C (racemic) [Pool 61],39,677.65,369.65,61,50.845,49.155,1433.75,526.75
CC(C)c1nc(CCC2CCCC2)n2c1NC(=O)C2C(C)C (stereo not shown) [Pool 146],67,945.85,637.85,33,69.088,30.912,1622.75,715.75
CCCCCCc1nc(C(C)C)c2n1C(C(C)C)C(=O)N2 (racemic) [Pool 122],53,817.3,509.30,47,51.805,48.195,1443.7,536.70
CCC(C)c1nc(C)n2c1NC(=O)C2C(C)C (stereo not shown) [Pool 38],40,687.75,379.75,60,68.639,31.361,1618.1,711.10
CC(C)c1nc(CC2CC3CCC2C3)n2c1NC(=O)C2C(C)C (stereo not shown) [Pool 155],64,918.35,610.35,36,69.040,30.960,1622.25,715.25
CCCc1nc(C(C)C)c2n1C(C(C)C)C(=O)N2 (racemic) [Pool 121],54,826.45,518.45,46,60.468,39.532,1533.45,626.45
Cc1ccc(Cc2nc(C(C)C)c3n2C(C(C)C)C(=O)N3)cc1 (racemic) [Pool 74],58,858.65,550.65,42,48.287,51.713,1407.25,500.25
Cc1nc(C(C)C)c2n1C(C(C)C)C(=O)N2 (stereo not shown) [Pool 142],67,946.05,638.05,33,79.324,20.676,1728.8,821.80
CC(C)c1nc(C2CCCC2)n2c1NC(=O)C2C(C)C (stereo not shown) [Pool 145],71,986.9,678.90,29,61.501,38.499,1544.15,637.15
COc1ccc(Cc2nc(C(C)C)c3n2C(C(C)C)C(=O)N3)cc1OC (racemic) [Pool 87],59,870.35,562.35,41,81.337,18.663,1749.65,842.65
CCC(CC)c1nc(C(C)C)c2n1C(C(C)C)C(=O)N2 (stereo not shown) [Pool 157],65,930.35,622.35,35,54.638,45.362,1473.05,566.05
Cc1nc(C(C)C)c2n1C(C(C)C)C(=O)N2 (stereo not shown) [Pool 3],70,974.05,666.05,30,54.228,45.772,1468.8,561.80
CCC(c1ccccc1)c1nc(C(C)C)c2n1C(C(C)C)C(=O)N2 (mixture of isomers) [Pool 68],66,935.45,627.45,34,106.786,−6.786,2013.3,1106.30
Cc1nc(CO)c2n1C(C(C)C)C(=O)N2 (stereo not shown) [Pool 39],–,–,–,–,78.827,21.173,1723.65,816.65
